Experimental findings from patent publication US20100035878A1, “INHIBITORS OF C-JUN N-TERMINAL KINASES FOR THE TREATMENT OF NEURODEGENERATIVE DISORDERS RELATING TO APOPTOSIS AND/OR INFLAMMATION” (EISAI R & D MANAGEMENT CO., LTD., priority 2005, published 2010) are described below.

Each structure is given as a SMILES string.

For this assay, the target named is JNK3 (Homo sapiens, UniProt P53779). As to the kind of experiment: JNK3 SPA assay (phosphorylation of GST-c-Jun). Type of assay: biochemical. The settings on record: GST-c-Jun substrate, [γ-33P] ATP, 30 minutes at room temperature. On the procedure: JNK1, JNK2, JNK3-SPA Assay
JNK3, sequence (P53779 whole entry): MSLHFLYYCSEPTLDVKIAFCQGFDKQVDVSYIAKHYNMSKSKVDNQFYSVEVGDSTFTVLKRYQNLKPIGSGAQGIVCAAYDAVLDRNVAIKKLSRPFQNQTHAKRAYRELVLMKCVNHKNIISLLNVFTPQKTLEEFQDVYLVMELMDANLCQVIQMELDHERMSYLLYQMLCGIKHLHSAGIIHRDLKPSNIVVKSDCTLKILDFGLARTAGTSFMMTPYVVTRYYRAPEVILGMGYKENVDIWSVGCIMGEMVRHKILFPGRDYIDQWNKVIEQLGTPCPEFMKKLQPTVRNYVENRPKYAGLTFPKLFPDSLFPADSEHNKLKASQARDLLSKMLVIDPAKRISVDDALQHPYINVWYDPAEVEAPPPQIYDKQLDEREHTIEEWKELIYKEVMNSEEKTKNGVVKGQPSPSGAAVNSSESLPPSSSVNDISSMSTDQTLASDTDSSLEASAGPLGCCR
• 1. Compound is dissolved in DMSO to a convenient concentration and this is diluted in 10% DMSO to a five times concentrate of the desired starting concentration (frequently 1:100). • 2. 10 μl of 500 mM EDTA is added to alternative wells of the Opti-plate row, which will receive kinase reaction plus DMSO. This creates the negative control. • 3. For the JNK2 and JNK3 assay, compounds are prepared in six 2-fold dilutions with water and each concentration is tested in duplicate. For the JNK1 assay compounds are prepared in four 5-fold dilutions with water which are tested in triplicate. Controls are treated identically. • 4. 20 μl per well of each compound concentration is transferred to an Opti-plate, in duplicate. • 5. 30 μl (JNK2/3 SPA) or 50 μl (JNK1 SPA) of substrate solution (25 mM HEPES pH 7.5, 10 mM magnesium acetate with 3.33 µM ATP (JNK2/3) or 2 µM ATP (JNK1), approximately 7.5 kBq [γ-^33P] ATP, GST-c-Jun, in water) is added to each well. • 6. 50 μl (JNK2/3 SPA) or 30 μl (JNK1 SPA) of kinase solution (JNK in 25 mM HEPES pH 7.5, 10 mM Mg Acetate) is added to each well.
• 7. The plate is incubated for 30 minutes at room temperature. • 8. 100 μl of bead/stop solution is added to each well (5 mg/ml glutathione-PVT-SPA beads, 40 mM ATP in PBS). • 9. Plates are sealed and incubated for 30 minutes at room temperature, centrifuged for 10 minutes at 2500 g and counted. • 10. The IC50 values are calculated as the concentration of the compound being tested at which the phosphorylation of c-Jun is decreased to 50% of the control value.
`CCCCOc1cnc2[nH]cc(-c3cnn(C)c3)c2c1` yielded an IC50 of under 500 nM.

Molecule `CCCOc1cnc2[nH]cc(-c3cnn(C)c3)c2c1` returned an IC50 of under 500 nM.

For `c1ccc(Sc2cnc3[nH]cc(-c4cn[nH]c4)c3c2)cc1`, the half-maximal inhibitory concentration (IC50) is under 200 nM.

In turn, `CCCCCCOc1cnc2[nH]cc(-c3cnn(C)c3)c2c1` registered a half-maximal inhibitory concentration (IC50) of under 500 nM.

With `Cn1cc(-c2c[nH]c3ncc(Oc4ccccc4)cc23)cn1`, the half-maximal inhibitory concentration (IC50) was under 500 nM.

In the case of `Cn1cc(-c2c[nH]c3ncc(OCC4CC4)cc23)cn1`, the IC50 is under 500 nM.

Molecule `Cn1cc(-c2c[nH]c3ncc(OCC4CCCCC4)cc23)cn1` yielded an IC50 of under 500 nM.

`CC(C)Cc1cnc2[nH]cc(-c3csc(C(=O)N4CCN(C)CC4)n3)c2c1` returned an IC50 of under 100 nM.

For `CC(C)(C)OC(=O)Nc1cnc2[nH]cc(-c3cn[nH]c3)c2c1`, the IC50 is under 1000 nM.

Regarding `Cn1cc(-c2c[nH]c3ncc(CN4CCc5ccccc54)cc23)cn1`, the half-maximal inhibitory concentration (IC50) was under 500 nM.

With `CN(C)c1cccc(Sc2cnc3[nH]cc(-c4cnn(C)c4)c3c2)c1`, the IC50 is under 200 nM.

Molecule `Cn1cc(-c2c[nH]c3ncc(OCc4ccccc4)cc23)cn1` registered a concentration for half-maximal inhibition (IC50) of under 500 nM.

In turn, `COCCOc1cnc2[nH]cc(-c3cnn(C)c3)c2c1` showed an IC50 of under 2000 nM.

For `Cn1cc(-c2c[nH]c3ncc(CC4CCC4)cc23)cn1`, the 50% inhibitory concentration (IC50) is under 100 nM.

Molecule `CCCCCc1cnc2[nH]cc(-c3csc(C(=O)N(C)C)n3)c2c1` yielded an IC50 of under 500 nM.

In turn, `CCCCCOc1cnc2[nH]cc(-c3cnn(C)c3)c2c1` gave an IC50 of under 200 nM.

For the molecule `Nc1cnc2[nH]cc(-c3cn[nH]c3)c2c1`, the IC50 was under 500 nM.

Consider `C=CCOc1cnc2[nH]cc(-c3cnn(C)c3)c2c1`, for which the IC50 is under 500 nM.

Consider `Cn1cc(-c2c[nH]c3ncc(CC4=CCCC4)cc23)cn1`, for which the IC50 was under 200 nM.

For the molecule `CCCCCCCCc1cnc2[nH]cc(-c3cnn(C)c3)c2c1`, the IC50 was under 100 nM.

Take `Cn1cc(-c2c[nH]c3ncc(CC4CCCCC4)cc23)cn1`: the IC50 is under 100 nM.

Regarding `Cn1cc(-c2c[nH]c3ncc(CC4=CCCCC4)cc23)cn1`, the IC50 was under 200 nM.

As to `Cn1cc(-c2c[nH]c3ncc(OCCc4ccccc4)cc23)cn1`, the IC50 is under 500 nM.

`Cc1cccc(Oc2cnc3[nH]cc(-c4cnn(C)c4)c3c2)c1` displayed an IC50 of under 1000 nM.

For the molecule `CCCCCc1cnc2[nH]cc(-c3csc(C(=O)N4CCCCC4)n3)c2c1`, the IC50 is under 200 nM.

Turning to `CCCCCCCc1cnc2[nH]cc(-c3cnn(C)c3)c2c1`, the IC50 was under 100 nM.

`O=C(O)c1ccccc1C(=O)Nc1cnc2[nH]cc(-c3cncs3)c2c1` yielded an IC50 of under 200 nM.

`CC(C)Cc1cnc2[nH]cc(-c3cnn(CCN4CCOCC4)c3)c2c1` displayed a half-inhibitory concentration (IC50) of under 500 nM.

On to `[O-][S+](c1ccccc1)c1cnc2[nH]cc(-c3cn[nH]c3)c2c1` (centres unmarked), for which the IC50 was under 500 nM.

The molecule `CCCCS(=O)(=O)c1cnc2[nH]cc(-c3cn[nH]c3)c2c1` registered an IC50 of under 1000 nM.

With `CC(C)Cc1cnc2[nH]cc(-c3csc(C4CCN(C)CC4)n3)c2c1`, the IC50 was under 1000 nM.

Take `Cn1cc(-c2c[nH]c3ncc(CC4CCC(O)CC4)cc23)cn1` (centres unmarked): the IC50 was under 100 nM.

As to `CN1CCN(C2CCC(Cc3cnc4[nH]cc(-c5cnn(C)c5)c4c3)CC2)CC1` (centres unmarked), the IC50 was under 200 nM.

`CCCCCc1cnc2[nH]cc(-c3csc(C(=O)N4CCN(C)CC4)n3)c2c1` yielded an IC50 of under 200 nM.

In turn, `Cn1cc(-c2c[nH]c3ncc(CCC4CCCCC4)cc23)cn1` gave an IC50 of under 200 nM.

The molecule `CCCCCc1cnc2[nH]cc(-c3csc(C(=O)N4CCOCC4)n3)c2c1` came in with a half-inhibitory concentration (IC50) of under 500 nM.

Consider `Cn1cc(-c2c[nH]c3ncc(CC4CCN(Cc5ccccc5)CC4)cc23)cn1`, for which the IC50 was under 200 nM.

Molecule `COc1cnc2[nH]cc(-c3cn[nH]c3)c2c1` yielded an IC50 of under 1000 nM.

As for `Cc1ccc(Oc2cnc3[nH]cc(-c4cnn(C)c4)c3c2)cc1`, the IC50 was under 500 nM.

Molecule `Cn1cc(-c2c[nH]c3ncc(CC4CCC(=O)CC4)cc23)cn1` had an IC50 of under 200 nM.

The molecule `Cn1cc(-c2c[nH]c3ncc(CN4CCCCC4)cc23)cn1` gave an IC50 of under 1000 nM.

With `C#CCOc1cnc2[nH]cc(-c3cnn(C)c3)c2c1`, the IC50 was under 500 nM.

`CN(C)C1CCC(Cc2cnc3[nH]cc(-c4cnn(C)c4)c3c2)CC1` (centres unmarked) gave a concentration for half-maximal inhibition (IC50) of under 200 nM.

In the case of `CC(C)Cc1cnc2[nH]cc(-c3cnn(C)c3)c2c1`, the IC50 is under 100 nM.

The molecule `Cn1cc(-c2c[nH]c3ncc(OC4CCCC4)cc23)cn1` displayed an IC50 of under 200 nM.

`Cn1cc(-c2c[nH]c3ncc(Oc4ccc(F)cc4)cc23)cn1`: the IC50 is under 1000 nM.

Take `Cn1cc(-c2c[nH]c3ncc(CCC(C)(C)C)cc23)cn1`: the IC50 is under 500 nM.

As to `CC(C)Cc1cnc2[nH]cc(-c3csc(C(=O)N4CCOCC4)n3)c2c1`, the IC50 is under 200 nM.

Molecule `Cn1cc(-c2c[nH]c3ncc(CCCCO)cc23)cn1` yielded a concentration for half-maximal inhibition (IC50) of under 1000 nM.

For `CN(C)c1ccc(Oc2cnc3[nH]cc(-c4cnn(C)c4)c3c2)cc1`, the half-maximal inhibitory concentration (IC50) was under 500 nM.

`CC(C)CCCc1cnc2[nH]cc(-c3cnn(C)c3)c2c1`: the IC50 was under 200 nM.

Consider `Cn1cc(-c2c[nH]c3ncc(Cc4ccccc4)cc23)cn1`, for which the IC50 was under 200 nM.

The molecule `CCCc1cnc2[nH]cc(-c3cnn(C)c3)c2c1` yielded an IC50 of under 100 nM.

In the case of `CCOc1cnc2[nH]cc(-c3cnn(C)c3)c2c1`, the IC50 is under 500 nM.

Turning to `CC(C)Cc1cnc2[nH]cc(-c3csc(C(=O)N4CCCCC4)n3)c2c1`, the 50% inhibitory concentration (IC50) was under 200 nM.

For the molecule `CCOC(=O)COc1cnc2[nH]cc(-c3cnn(C)c3)c2c1`, the IC50 is under 2000 nM.

Consider `CCCC[S+]([O-])c1cnc2[nH]cc(-c3cn[nH]c3)c2c1` (centres unmarked), for which the half-inhibitory concentration (IC50) is under 1000 nM.

Molecule `O=C(Nc1cnc2[nH]cc(-c3ccoc3)c2c1)c1ccc(F)cc1` registered an IC50 of under 500 nM.

The molecule `Cn1cc(-c2c[nH]c3ncc(Cn4ccc5ccccc54)cc23)cn1` yielded a concentration for half-maximal inhibition (IC50) of under 500 nM.

In the case of `Oc1cnc2[nH]cc(-c3cn[nH]c3)c2c1`, the IC50 was under 2000 nM.

In turn, `CCCCCc1cnc2[nH]cc(-c3cnn(C)c3)c2c1` returned an IC50 of under 200 nM.

Regarding `Cc1ccccc1Oc1cnc2[nH]cc(-c3cnn(C)c3)c2c1`, the IC50 is under 500 nM.

`Cn1cc(-c2c[nH]c3ncc(CC4CCCC4)cc23)cn1` displayed an IC50 of under 100 nM.

For the molecule `CCCCSc1cnc2[nH]cc(-c3cnn(C)c3)c2c1`, the IC50 is under 100 nM.

Regarding `Cn1cc(-c2c[nH]c3ncc(CC4CCC(N5CCOCC5)CC4)cc23)cn1` (centres unmarked), the IC50 was under 200 nM.

In general, IC50 refers to the concentration that gives 50% inhibition.
